Results from patent US20240374735A1, “AROMATIC BORON-CONTAINING COMPOUNDS AND INSULIN ANALOGS” (PROTOMER TECHNOLOGIES INC., priority 2020, published 2024).

Tested on: diabetic B6 mice (streptozocin)
Assay: Glucose challenge in STZ diabetic mice
Format: in vivo
Details: injected subcutaneously or intraperitoneally, glucose challenge one hour post-injection
Protocol: Diabetes was induced in 12-week-old B6 mice using streptozocin (STZ) treatment. Three weeks after the final STZ treatment, blood glucose of the mice was sampled from lateral tail vein to confirm diabetes. Mice with blood glucose of >200 mg/dl were deemed to be diabetic and fasted for 1-6 hours prior to injection. Human insulin and a compound of Formula I in sterile phosphate buffered saline, pH 7.4 were injected either subcutaneously via neck scruff or intraperitoneally, depending on the experiment. Blood glucose was sampled with a glucometer via lateral tail vein at 15-minute intervals. After one hour of initial stabilization of blood glucose levels post-insulin injection, mice were challenged with an intraperitoneal injection of glucose (e.g., 2 g/kg, 4 g/kg, or 6 g/kg; the actual dose depends on the example and experiment) in sterile phosphate buffered saline.

human insulin: Human insulin, comparator in the mouse experiments; biosynthetic human insulin (BHI) in the clamp
Blood glucose response after intraperitoneal glucose bolus: did not activate in a glucose-dependent manner
